Laboratory results published in US7442776B2, “Cancerous disease modifying antibodies” (priority 1999, dated 2008).

Experiments:
Design in all cases: key to the marks not given beside the values
Details in all cases: purified antibody or control, 5 days incubation, calcein; four experiments in triplicate
[1] = test system: SW1116 colon cancer cell line
[2] = test system: NCI-H460 lung cancer cell line; assay: Live/Dead cytotoxicity assay
[3] = test system: HT-29 colon cancer cell line; assay: Live/Dead cytotoxicity assay
[4] = test system: SW620 colon cancer cell line; assay: Live/Dead cytotoxicity assay
[5] = test system: MCF-7 breast cancer cell line
[6] = test system: Hs888.Lu non-cancer cell line
[7] = test system: MDA-MB-468 (MB-468) breast cancer cell line; assay: Live/Dead cytotoxicity assay
[8] = test system: CCD-27sk non-cancer cell line
[9] = test system: OVCAR-3 ovarian cancer cell line; assay: Live/Dead cytotoxicity assay
[10] = test system: PC-3 prostate cancer cell line
[11] = test system: MDA-MB-231 (MB-231) breast cancer cell line; assay: Live/Dead cytotoxicity assay

| SMILES | In Vitro Cytotoxicity, SW1116 [1] | In Vitro Cytotoxicity, NCI H460 [2] | In Vitro Cytotoxicity, HT-29 [3] | In Vitro Cytotoxicity, SW620 [4] | In Vitro Cytotoxicity, MCF-7 [5] | In Vitro Cytotoxicity, Hs888 Lu [6] | In Vitro Cytotoxicity, MB-468 [7] | In Vitro Cytotoxicity, CCD 27sk [8] | In Vitro Cytotoxicity, OVCAR [9] | In Vitro Cytotoxicity, PC-3 [10] | In Vitro Cytotoxicity, MB-231 [11] |
| --- | --- | --- | --- | --- | --- | --- | --- | --- | --- | --- | --- |
| C[C@@H]1C[C@@H]([C@H](O)CC2CC(=O)NC(=O)C2)C(=O)[C@@H](C)C1 [CHX, Cycloheximide] | +++ | ++ | +++ | ++ | +++ | +++ | +++ | +++ | +++ | +++ | ++ |
| [N-]=[N+]=[N-].[Na+] [NaN3] | ++ | +++ | +++ | – | +++ | – | +++ | – | +++ | +++ | +++ |
